These results are taken from paper PMC10329798 (Virology Journal, 2023).

Where two headings read alike, the source gives them in different places.

Data set [1] deals with T1, SARS-CoV-2 E protein (2-E) (Severe acute respiratory syndrome coronavirus 2, UniProt P0DTC4). Nature of the data set: cell-based.
The next data set relates to SARS-CoV E protein (1-E). The following applies: 1-E protein, cell viability assay; read-out: IC50, inhibition data from published 1-E protein; cited from earlier work.
Data set [2] deals with T1, SARS-CoV-2 E protein (2-E). Briefly: cell-based. The class given is biochemical.
A further data set concerns SARS-CoV-2. Conditions: in vitro, Vero-h/SLAM cells; cited from earlier work.
[3] abbreviates: read-out: IC50, cell viability assay, 2-E protein.
The mark [4] stands for this setting: read-out: IC50, patch-clamp electrophysiology, 2-E.

T1 sequence (P0DTC4 whole entry): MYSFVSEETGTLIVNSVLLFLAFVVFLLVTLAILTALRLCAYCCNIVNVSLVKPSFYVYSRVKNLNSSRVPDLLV

Take `NC(N)=NC(=O)c1nc(Cl)c(N2CCCCCC2)nc1N` [HMA, 5-(N,N-hexamethylene)amiloride]: the figures for the half-maximal inhibitory concentration (IC50) (in data set [1] (setting [3]); in the data set on SARS-CoV E protein (1-E); in data set [2] (setting [4])) were 1.5 ± 0.3 µM, 2.6 ± 0.4 µM and 1.9 ± 0.3 nM, respectively. Also, the “Concentration with cytotoxic effects / onset of cell toxicity” value in the data set with HEK293 cells was over 10 µM.
For the compound `NC12CC3CC(CC(C3)C1)C2` [amantadine], the results for the half-maximal inhibitory concentration (IC50) (in data set [1] (setting [3]); with SARS-CoV E protein (1-E); in data set [2] (setting [4])) were 89 ± 27 µM, 77 ± 13 µM and 24.1 ± 6.5 nM, respectively. Besides, the “Concentration with cytotoxic effects / onset of cell toxicity” value in the data set on HEK293 cells is listed as “not cytotoxic”.
Regarding `CCC(C)C1OC2(CCC1C)CC1CC(CC=C(C)C(O)C(C)C=CC=C3COC4C(O)C(C)=CC(C(=O)O1)C34O)O2` (stereo not drawn) [ivermectin aglycon], the IC50 (in general, the point on the concentration scale where inhibition reaches its midpoint) in data set [2] (setting [4]) amounted to 5 ± 1.3 nM.
Regarding `CC1=C[C@H]2C(=O)O[C@H]3C[C@@H](C/C=C(\C)C[C@@H](C)/C=C/C=C4\CO[C@H]([C@@H]1O)[C@@]42O)O[C@@]1(CC[C@H](C)[C@@H](C)O1)C3` [milbemycin], the “Concentration with cytotoxic effects / onset of cell toxicity” value in the data set with HEK293 cells (human) is ~ 10 µM. The compound also showed an IC50 in data set [2] of 2.21 ± 0.65 nM.
For `CC1=C[C@H]2C(=O)O[C@H]3C[C@@H](C/C=C(\C)C[C@@H](C)/C=C/C=C4\CO[C@H]([C@@H]1O)[C@@]42O)O[C@]1(C3)C[C@H](O)[C@H](C)[C@@H](/C(C)=C/C(C)C)O1` [nemadectin], the “Concentration with cytotoxic effects / onset of cell toxicity” value in the data set with HEK293 cells (human) was found to be 2 µM. Also, in data set [2], the “IC50, patch-clamp electrophysiology, 2-E” value is on record as “not active”. In data set [2] (any of the tested concentrations), the “Inhibition of 2-E protein-mediated currents” value was “did not observe inhibition”.
`CC(N)C12CC3CC(CC(C3)C1)C2` (stereo not drawn) [rimantadine]: the IC50 in data set [1] is 8.9 ± 2.2 µM; in the data set on SARS-CoV E protein (1-E), 10.9 ± 3.3 µM; in data set [2] it was 3.6 ± 0.6 nM. The “Concentration with cytotoxic effects / onset of cell toxicity” value with HEK293 cells is “not cytotoxic”.
Consider ivermectin, for which the “Reduction in SARS-CoV-2 viral RNA” value in the data set with SARS-CoV-2 is recorded as 5000 fold. In data set [1], the “Inhibition of the 2-E protein in the cell viability assay” value is given as “showed inhibiting effects”. In addition, the IC50 in data set [2] (setting [4]) was determined as 0.88 ± 0.1 nM.
